Test system: participants with primary biliary cholangitis
Experiment: NCT04526665 (ELATIVE) double-blind, placebo-controlled phase 3 clinical trial
Format: in vivo, human
Protocol: Participants aged 18 to 75 years, who had been diagnosed with primary biliary cholangitis according to established criteria, were recruited at 82 sites in 14 countries. Inclusion criteria were an alkaline phosphatase level of ≥1.67 times the upper limit of the normal range (ULN), and a total bilirubin level of ≤2 times the ULN. Prior to screening, eligible participants had received 13 to 15 mg/kg ursodeoxycholic acid treatment per day for at least 12 months (stable dose for at least 3 months) or were intolerant to ursodeoxycholic acid (no treatment for at least 3 months).
In this double-blind, placebo-controlled, phase 3 trial, participants with an inadequate response or intolerance to ursodeoxycholic acid were randomized 2:1 to receive elafibranor 80 mg or placebo once daily. Participants receiving stable doses of ursodeoxycholic acid for at least three months prior to enrollment continued their treatment regimen throughout the trial. The overall double-blind treatment period consisted of two parts. In part one, all randomized participants received a minimum of 52 weeks of double-blind treatment. In part two, participants continued to receive double-blind treatment beyond Week 52 in a variable treatment period until all participants had completed their Week 52 assessment or until a maximum treatment duration of 104 weeks, whichever came first. The first database lock occurred after the last participant completed their Week 52 visit in the double-blind period. At the end of the double-blind period (lasting 52 to 104 weeks), participants could optionally enter an open-label extension where they would receive elafibranor 80 mg for up to five years.
The primary endpoint of Study NCT04526665 was response to treatment in the intent-to-treat population at Week 52, defined as ALP<1.67×ULN, TB≤ULN, and ALP decrease ≥15% from baseline. The primary endpoint was also analyzed according to baseline alkaline phosphatase levels of ≤3 times versus >3 times the ULN.
From September 2020 through May 2023, 161 participants were randomly assigned to receive elafibranor 80 mg (108 participants) or placebo (53 participants); these participants made up the intent-to-treat (ITT) and safety populations.

## CSc1ccc(C(=O)C=Cc2cc(C)c(OC(C)(C)C(=O)O)c(C)c2)cc1 [elafibranor, 2-(2,6-dimethyl-4-{3-[4-(methylsulfanyl)phenyl]-3-oxoprop-1-en-1-yl}phenoxy)-2-methylpropanoic acid]
80 mg daily
  efficacy in baseline ALP >1.67×ULN and ≤3×ULN relative to baseline ALP >3×ULN: more than 3 times
1.67 ULN < ALP ≤ 3 ULN, ITT Analysis Set, n=65
  Primary endpoint met at week 52, n (%): 46 (70.8) n (%)
ALP <3×ULN, AST <2×ULN and TB ≤1 mg/dL, ITT Analysis Set, n=106
  Response according to Paris I criteria: Primary endpoint met at week 52, n (%): 73 (68.9) n (%)
ALP > 3 ULN, ITT Analysis Set, n=43
  Primary endpoint met at week 52, n (%): 9 (20.9) n (%)
PBC patients
  safety and tolerability in patients: safe and well-tolerated
Week 52, ITT Analysis Set
  Odds Ratio of response (elafibranor vs placebo), Paris I criteria: 2.852
  Proportion of responders (Paris I criteria): 0.689
  Risk difference (Paris I response, elafibranor vs placebo): 0.220
  difference in Paris I response vs placebo: 22.0%
Week 52, ITT Analysis Set, 73/106
  participants with response based on ALP<3×ULN, AST<2×ULN and TB≤1 mg/dl (Paris I): 68.9%
All participants, Week 52
  complete normalization of alkaline phosphatase at Week 52, difference vs placebo: 15%
All participants, Week 52, 95% CI 2.8 to infinity
  complete normalization of alkaline phosphatase at Week 52, odds ratio vs placebo: infinity
All participants, elafibranor 80 mg once daily, Week 52
  complete normalization of alkaline phosphatase at Week 52, % of participants: 15%
Baseline ALP >3 times the ULN
  complete normalization of alkaline phosphatase at Week 52, % of patients: 4.7%
Baseline ALP >3 times the ULN (43 participants), Week 52
  participants who met the primary endpoint (ALP<1.67×ULN, TB≤ULN, ALP decrease ≥15%): 20.9%
Baseline ALP more than 1.67×ULN and at most 2×ULN vs others, Week 52
  frequency of ALP normalization relative to other participants (FIG. 4): at least 4 times
Baseline ALP more than 1.67×ULN and at most 2.5×ULN
  participants with a biochemical response at Week 52 (FIG. 3): more than 80%
Baseline ALP more than 2.5×ULN and at most 3×ULN
  participants with a biochemical response at Week 52 (FIG. 3): more than 50%
Baseline ALP more than 3×ULN
  participants with a biochemical response at Week 52 (FIG. 3): less than 23%
Baseline ALP ≤3 ULN versus higher baseline ALP
  biochemical response and ALP normalization rates by baseline ALP (FIGS. 3 to 5): higher biochemical response and ALP normalization rates
Baseline ALP ≤3 times the ULN
  complete normalization of alkaline phosphatase at Week 52, % of patients: 21.5%
Baseline ALP ≤3 times the ULN (65 participants), Week 52
  participants who met the primary endpoint (ALP<1.67×ULN, TB≤ULN, ALP decrease ≥15%): 70.8%
Baseline through Week 4, sustained significantly lower than placebo through Week 52
  reductions in alkaline phosphatase levels over time: Rapid reductions
Treatment with elafibranor vs placebo
  reduction in plasma ALP levels from baseline compared to placebo: statistically significant reduction
